Reference: patent US3954865A, “N-cycloalkyl substituted-10,11-dihydro 5H-dibenzo[a,d] cyclohepten-5-imines” (E. I. Du Pont de Nemours and Company, priority 1974, dated 1976)

How the values were obtained:
[1] = system: uptake of dopamine by the corpus striatum; assay: inhibition of uptake of labelled dopamine by rat corpus striatum homogenate (procedure of Coyle et al); format: biochemical; details: for Ratio Hypothalmus/Striatum: ratio of ID50 values, hypothalamus over striatum
Protocol: (§1) Many compounds which are active in the central nervous system of mammals appear to inhibit the uptake of catecholamines by mammalian brain tissues. […] The compounds of the invention have the ability of selectively inhibiting the uptake of dopamine by the corpus striatum. This ability was measured by a test procedure following that of Coyle et al supra. Rat brain slices from the corpus striatum and hypothalamus are separately homogenized and incubated with predetermined amounts of labelled norepinephrine or dopamine and a compound of the invention. After a suitable incubation period the amount of labelled catecholamine taken up by the brain homogenate is determined.

[2] = system: uptake of norepinephrine by the hypothalamus; assay: inhibition of uptake of labelled norepinephrine by rat hypothalamus homogenate (procedure of Coyle et al); format: biochemical
Protocol: as §1

| Compound | Ratio Hypothalmus/Striatum [1] | inhibiting the uptake of dopamine, selectivity in words ([1]; dopamine versus norepinephrine uptake) | inhibiting the uptake of norepinephrine, in words [2] |
| --- | --- | --- | --- |
| CC(C)=C1CC(CN=C2c3ccccc3CCc3ccccc32)C1 (stereo not shown) [Example 5, N-(3-Isopropylidenecyclobutylmethyl)-10,11-dihydro[a,d]cyclohepten-5-imine] | 1.25 | – | – |
| c1ccc2c(c1)CCc1ccccc1C2=NC1CC1 [Example 2, N-Cyclopropyl-10,11-dihydro-5H-dibenzo[a,d]cyclohepten-5-imine] | > 6 | – | – |
| c1ccc2c(c1)CCc1ccccc1C2=NCC1CC1 [Example 1, N-cyclopropylmethyl-10,11-dihydro-5H-dibenzo[a,d]cyclohepten-5-imine] | 20 | almost exclusive effect inhibiting the uptake of dopamine | without significantly inhibiting the uptake of norepinephrine |
| CC(C)N=C1c2ccccc2CCc2ccccc21 [Isopropyl, reference compound] | 0.25 | – | – |
| Clc1ccc2c(c1)C(=NCC1CC1)c1ccccc1CC2 [Example 4, 3-Chloro-N-cyclopropylmethyl-10,11-dihydro-5H-dibenzocyclohepten-5-imine] | 2 | – | – |
